Data from patent US20230107216A1, “PANTETHEINE DERIVATIVES AND USES THEREOF” (Comet Therapeutics, Inc., priority 2018, published 2023).

test system: HepG2 cells; experiment: Glucose uptake (Glucose Uptake-Glo); assay type: cell-based; settings: Homo sapiens, 10 uM, read-out: % increase in Glucose Uptake

| SMILES | activation at 10 µM |
| --- | --- |
| C[C@H](NC(=O)OC(C)(C)C)C(=O)OCC(C)(C)[C@@H](O)C(=O)NCCC(=O)NCCS [Compound 1278, (3R)-3-hydroxy-2,2-dimethyl-3-([2-[(2-sulfanylethyl)carbamoyl]ethyl]carbamoyl)propyl (2S)-2-[(tert-butoxycarbonyl)amino]propanoate] | ≥ 30% |
| CC(=O)SCCNC(=O)CCNC(=O)[C@H](O)C(C)(C)COC(=O)CNC(=O)OC(C)(C)C [Compound 1275, (3R)-3-[(2-[[2-(acetylsulfanyl)ethyl]carbamoyl]ethyl)carbamoyl]-3-hydroxy-2,2-dimethylpropyl 2-[(tert-butoxycarbonyl)amino]acetate] | ≥ 20% |
| CCC(=O)OCC(C)(C)[C@@H](O)C(=O)NCCC(=O)NCCSSCCNC(=O)CCNC(=O)[C@H](O)C(C)(C)COC(=O)CC [Compound 1271, (3R)-3-hydroxy-3-[[2-([2-[(2-[3-[(2R)-2-hydroxy-3,3-dimethyl-4-(propanoyloxy)butanamido]propanamido]ethyl)disulfanyl]ethyl]carbamoyl)ethyl]carbamoyl]-2,2-dimethylpropyl propanoate] | ≥ 10% |
| C[C@H](NC(=O)OC(C)(C)C)C(=O)OCC(C)(C)[C@@H](O)C(=O)NCCC(=O)NCCSSCCNC(=O)CCNC(=O)[C@H](O)C(C)(C)COC(=O)[C@H](C)NC(=O)OC(C)(C)C [Compound 1277, (3R)-3-[[2-([2-[(2-[3-[(2R)-4-[[(2S)-2-[(tert-butoxycarbonyl)amino]propanoyl]oxy]-2-hydroxy-3,3-dimethylbutanamido]propanamido]ethyl)disulfanyl]ethyl]carbamoyl)ethyl]carbamoyl]-3-hydroxy-2,2-dimethylpropyl (2S)-2-[(tert-butoxycarbonyl)amino]propanoate] | ≥ 10% |

same assay, conditions: Homo sapiens, 50 uM, read-out: % increase in Glucose Uptake

| SMILES | activation at 50 µM |
| --- | --- |
| CC(=O)OCC(C)(C)[C@@H](O)C(=O)NCCC(=O)NCCSC(=O)/C=C/C(=O)O [Compound 144, (2E)-4-[(2-[3-[(2R)-4-(acetyloxy)-2-hydroxy-3,3-dimethylbutanamido]propanamido]ethyl)sulfanyl]-4-oxobut-2-enoic acid] | ≥ 30% |
| CC(=O)OCC(C)(C)[C@@H](OC(C)=O)C(=O)NCCC(=O)NCCS [Compound 1263, (1R)-3-(acetyloxy)-2,2-dimethyl-1-([2-[(2-sulfanylethyl)carbamoyl]ethyl]carbamoyl)propyl acetate] | ≥ 30% |
| COC(=O)CCC1(CC(=O)SCCNC(=O)CCNC(=O)[C@H](O)C(C)(C)COC(C)=O)OCC(C)(C)CO1 [Compound 1268, methyl 3-(2-[2-[(2-[3-[(2R)-4-(acetyloxy)-2-hydroxy-3,3-dimethylbu-tanamido]propanamido]ethyl)sulfanyl]-2-oxoethyl]-5,5-dimethyl-1,3-dioxan-2-yl)propanoate] | ≥ 30% |
| CC(=O)O[C@@H](C(=O)NCCC(=O)NCCSC(=O)CCC(=O)O)C(C)(C)CO [Compound 211, 4-[(2-[3-[(2R)-2-(acetyloxy)-4-hydroxy-3,3-dimethylbutanamido]propanamido]ethyl)sulfanyl]-4-oxobutanoic acid] | ≥ 30% |
| CC(C)(C)OC(=O)NCC(=O)OCC(C)(C)[C@@H](O)C(=O)NCCC(=O)NCCS [Compound 1274, (3R)-3-hydroxy-2,2-dimethyl-3-([2-[(2-sulfanylethyl)carbamoyl]ethyl]carbamoyl)propyl 2-[(tert-butoxycarbonyl)amino]acetate] | ≥ 30% |
